Read-outs that look alike come from different tables or passages of the source. Blank lines part the entries; values can stand above or below the compound they belong to.
Assays:
[1] = system: RPMI8226.BR cells; assay: Cell viability of bortezomib-resistant myeloma cells; type: cell-based
[2] = system: MM.1S.BR cells; assay: as above; type: cell-based
[3] = biological target: T1, DYRK2 (Homo sapiens, UniProt Q92630); assay: DYRK2 kinase assay, IC50 determination; type: biochemical; details: 0.025 mM, 0.1 mM or 2 mM ATP
T1 sequence (Q92630 1-601): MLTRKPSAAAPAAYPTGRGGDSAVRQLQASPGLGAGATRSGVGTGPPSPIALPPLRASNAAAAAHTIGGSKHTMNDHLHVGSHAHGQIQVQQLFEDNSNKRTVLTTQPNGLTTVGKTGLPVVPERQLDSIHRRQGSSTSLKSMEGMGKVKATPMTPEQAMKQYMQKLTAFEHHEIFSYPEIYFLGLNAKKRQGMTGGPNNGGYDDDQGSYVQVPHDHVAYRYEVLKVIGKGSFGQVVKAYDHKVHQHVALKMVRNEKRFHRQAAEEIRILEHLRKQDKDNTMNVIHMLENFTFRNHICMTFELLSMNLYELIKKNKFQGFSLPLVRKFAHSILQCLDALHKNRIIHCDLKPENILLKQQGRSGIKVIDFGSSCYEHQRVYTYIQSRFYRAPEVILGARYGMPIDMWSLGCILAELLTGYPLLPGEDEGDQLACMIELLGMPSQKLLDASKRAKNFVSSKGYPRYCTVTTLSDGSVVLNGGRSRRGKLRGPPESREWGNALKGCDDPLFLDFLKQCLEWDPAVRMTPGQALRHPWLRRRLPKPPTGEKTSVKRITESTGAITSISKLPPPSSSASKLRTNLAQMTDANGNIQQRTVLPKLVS

[4] = biological target: T2, GSK3β (Homo sapiens, UniProt P49841); assay: GSK3β kinase assay, IC50 determination; type: biochemical
T2 sequence (P49841 whole entry): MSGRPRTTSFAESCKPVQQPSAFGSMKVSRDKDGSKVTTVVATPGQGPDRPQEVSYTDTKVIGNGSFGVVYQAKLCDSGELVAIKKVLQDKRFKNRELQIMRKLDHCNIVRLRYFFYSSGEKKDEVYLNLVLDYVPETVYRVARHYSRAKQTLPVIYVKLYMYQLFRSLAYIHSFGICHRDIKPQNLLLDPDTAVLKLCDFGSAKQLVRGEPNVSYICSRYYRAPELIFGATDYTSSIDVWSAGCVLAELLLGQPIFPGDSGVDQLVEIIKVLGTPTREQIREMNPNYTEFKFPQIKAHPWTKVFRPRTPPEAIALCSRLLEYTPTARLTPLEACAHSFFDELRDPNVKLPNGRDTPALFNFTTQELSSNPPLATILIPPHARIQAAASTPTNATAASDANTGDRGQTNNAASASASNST

[5] = biological target: T1, DYRK2; assay: pT25 RPT3 phosphorylation in HEK293T cells stably expressing FLAG-DYRK2; type: cell-based
[6] = system: 26S proteasome in MDA-MB-231 cells; assay: Proteasome activity in total cell lysates, Suc-LLVY-AMC; type: cell-based; details: 1 h
[7] = system: 26S proteasome in HaCaT cells; assay: as above; type: cell-based; details: 10 μM, 1 h
[8] = system: UBL-YFP-PEST in HEK293T cells; assay: UBL-YFP-PEST reporter degradation; type: cell-based; details: 10 μM, 1 h pretreatment, CHX 2 h
[9] = system: 26S proteasome; assay: Affinity-purified 26S proteasome, bodipy-casein degradation in vitro; type: biochemical, human; details: 10 μM
[10] = system: multiple myeloma cell lines; assay: Caspase 3/7 activity; type: cell-based; details: multiple myeloma cell lysates, 16 h
[11] = system: MDA-MB-231 cells; assay: Cell proliferation by cell counting; type: cell-based; details: 3 µM
[12] = system: 5TGM1-GFP cells; assay: Cell proliferation by cell counting; type: cell-based; details: 1 µM, 5 days
[13] = system: MDA-MB-231 cells; assay: Matrigel transwell invasion assay; type: cell-based; details: MDA-MB-231, 5 μM, 24 h
[14] = system: Hs578T cells; assay: Matrigel transwell invasion assay; type: cell-based; details: 5 μM, 24 h
[15] = system: MDA-MB-231 xenograft tumors; assay: MDA-MB-231 tumor xenograft in NSG mice; type: in vivo
[16] = biological target: T2, GSK3β; details: read-out: IC50 GSK3β; cited from earlier work
[17] = biological target: T3, DYRK3 (Homo sapiens, UniProt O43781); assay: DYRK3 kinase assay, IC50 determination
T3 sequence (O43781 1-588): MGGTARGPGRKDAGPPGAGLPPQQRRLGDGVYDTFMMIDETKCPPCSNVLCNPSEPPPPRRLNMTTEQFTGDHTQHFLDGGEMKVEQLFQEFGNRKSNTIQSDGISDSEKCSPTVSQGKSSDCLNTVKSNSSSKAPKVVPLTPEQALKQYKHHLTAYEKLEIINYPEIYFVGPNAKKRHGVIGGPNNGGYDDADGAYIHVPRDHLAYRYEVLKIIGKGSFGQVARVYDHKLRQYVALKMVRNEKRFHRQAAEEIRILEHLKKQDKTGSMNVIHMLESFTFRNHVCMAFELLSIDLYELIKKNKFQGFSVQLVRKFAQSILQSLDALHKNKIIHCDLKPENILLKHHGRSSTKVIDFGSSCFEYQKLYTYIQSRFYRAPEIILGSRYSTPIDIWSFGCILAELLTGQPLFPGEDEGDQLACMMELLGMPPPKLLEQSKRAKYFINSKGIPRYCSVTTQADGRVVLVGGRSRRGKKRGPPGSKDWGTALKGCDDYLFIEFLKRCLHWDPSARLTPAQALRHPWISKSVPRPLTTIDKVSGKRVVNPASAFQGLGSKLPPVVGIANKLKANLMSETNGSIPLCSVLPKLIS

SMILES: CC(C)C[C@H](NC(=O)[C@H](Cc1ccccc1)NC(=O)c1cnccn1)B(O)O [bortezomib]
resistance to bortezomib relative to bortezomib-sensitive cells ([1]; RPMI8226.BR vs RPMI8226): 20- to 100 fold
resistance to bortezomib relative to bortezomib-sensitive cells ([2]; MM.1S.BR vs MM.1S): 20- to 100 fold

effect of higher concentrations of ATP on the IC50 for DYRK2 [3]: modest effect
IC50 [4]: > 3000 nM
concentration at which curcumin inhibits DYRK2 in cells [5]: 1 to 10 µM
inhibitor concentration of maximal suppression of pT25 RPT3 phosphorylation ([5]; 0.5 h): 3–10 μM
IC50 [17]: 20 nM
SMILES: COc1cc(/C=C/C(=O)CC(=O)/C=C/c2ccc(O)c(OC)c2)ccc1O [curcumin]
proteasome activity with curcumin treatment in DYRK2-null cells ([6]; DYRK2-null MDA-MB-231, 10 μM): no further decrease of proteasome activity
decrease of proteasome activity toward Suc-LLVY-AMC ([6]; MDA-MB-231 parental, 10 μM): 25–40%
proteasome activity with curcumin treatment in DYRK2-null cells ([7]; DYRK2-null HaCaT): no further decrease of proteasome activity
decrease of proteasome activity toward Suc-LLVY-AMC ([7]; HaCaT parental): 25–40%
UBL-YFP-PEST reporter protein degradation [8]: stabilized
effect on activity of affinity-purified proteasome to degrade BODIPY-casein [9]: no significant effect
cytotoxicity versus bortezomib-sensitive WT counterpart ([1]; RPMI8226.BR, 10 μM, 24 h): comparable cytotoxicity
cytotoxicity versus bortezomib-sensitive WT counterpart ([2]; MM.1S.BR, 10 μM, 24 h): comparable cytotoxicity
caspase3/7 activity [10]: significant increase
cell proliferation in DYRK2 KO cells ([11]; MDA-MB-231 DYRK2 KO): did not exhibit a further decrease in cell proliferation
rate of cell proliferation compared with DMSO-treated controls ([11]; MDA-MB-231 WT, 5 days): markedly slower rate of cell proliferation
rate of cell proliferation compared with DMSO-treated controls [12]: markedly slower rate of cell proliferation
cell invasion, 3D matrigel invasion assay [13]: largely blocked
cell invasion, 3D matrigel invasion assay [14]: largely blocked
Ki-67 staining in xenograft tumors ([15]; 300 mg/kg i.p.): greatly attenuated
tumor burden ([15]; 300 mg/kg i.p. every alternate day, after 2 wk of treatment, NSG mice): significantly reduced tumor burden
reduction of proteasome activity in curcumin-treated mouse tumors ([15]; 300 mg/kg i.p., whole-tumor lysates, Suc-LLVY-AMC): 30%
IC50 [16]: 66 nM
